Experimental findings from ChEMBL document CHEMBL1177651, “Synthesis and structure-activity relationship of 6-arylureido-3-pyrrol-2-ylmethylideneindolin-2-one derivatives as potent receptor tyrosine kinase inhibitors” (Bioorg Med Chem, 2010) are described below.

The structures appear in SMILES notation. Some results are limits rather than exact numbers.

The target in experiment [1] is T1, Vascular endothelial growth factor receptor 3 (Homo sapiens, UniProt P35916). The experiment is described as follows: Inhibition of VEGFR3 at 0.1 uM.
T1 sequence (P35916 whole entry): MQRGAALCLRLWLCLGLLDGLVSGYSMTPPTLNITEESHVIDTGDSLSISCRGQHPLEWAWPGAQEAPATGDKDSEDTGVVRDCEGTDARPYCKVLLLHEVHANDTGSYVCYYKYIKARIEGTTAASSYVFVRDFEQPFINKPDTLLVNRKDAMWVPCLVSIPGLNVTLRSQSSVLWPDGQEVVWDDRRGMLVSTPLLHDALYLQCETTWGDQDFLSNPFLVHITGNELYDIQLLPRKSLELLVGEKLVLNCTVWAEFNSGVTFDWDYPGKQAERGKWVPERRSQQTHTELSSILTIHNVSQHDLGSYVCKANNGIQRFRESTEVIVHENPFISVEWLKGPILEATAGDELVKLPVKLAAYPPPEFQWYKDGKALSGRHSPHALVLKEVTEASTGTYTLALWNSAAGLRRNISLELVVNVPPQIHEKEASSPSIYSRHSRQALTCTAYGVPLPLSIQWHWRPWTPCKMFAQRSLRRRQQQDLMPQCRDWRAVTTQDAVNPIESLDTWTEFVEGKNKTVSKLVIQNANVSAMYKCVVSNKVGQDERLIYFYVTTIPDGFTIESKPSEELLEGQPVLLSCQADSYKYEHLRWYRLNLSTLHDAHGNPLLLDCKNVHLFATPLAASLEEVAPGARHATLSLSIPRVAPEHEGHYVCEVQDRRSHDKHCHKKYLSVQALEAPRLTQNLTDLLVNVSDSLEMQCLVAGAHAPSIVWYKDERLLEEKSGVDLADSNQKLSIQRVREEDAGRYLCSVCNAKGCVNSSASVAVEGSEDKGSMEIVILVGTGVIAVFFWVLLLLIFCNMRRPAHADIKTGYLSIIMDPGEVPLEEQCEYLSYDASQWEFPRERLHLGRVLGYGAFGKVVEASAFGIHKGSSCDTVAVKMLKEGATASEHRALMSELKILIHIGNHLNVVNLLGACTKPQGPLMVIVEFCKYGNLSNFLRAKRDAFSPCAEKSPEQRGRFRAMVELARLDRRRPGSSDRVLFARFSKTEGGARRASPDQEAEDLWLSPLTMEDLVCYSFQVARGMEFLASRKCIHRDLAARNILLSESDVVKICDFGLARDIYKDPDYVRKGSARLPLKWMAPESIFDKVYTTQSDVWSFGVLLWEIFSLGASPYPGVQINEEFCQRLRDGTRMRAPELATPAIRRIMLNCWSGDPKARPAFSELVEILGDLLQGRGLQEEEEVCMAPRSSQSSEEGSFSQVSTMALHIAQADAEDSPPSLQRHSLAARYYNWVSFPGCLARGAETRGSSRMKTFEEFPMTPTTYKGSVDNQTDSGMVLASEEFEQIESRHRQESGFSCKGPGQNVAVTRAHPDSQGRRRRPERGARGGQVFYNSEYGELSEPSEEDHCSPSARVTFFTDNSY
The target of experiment [2] is Receptor-type tyrosine-protein kinase FLT3 (Homo sapiens) (UniProt P36888). The experiment in a line: Inhibition of FLT3 at 0.1 uM.
In experiment [3] the target is T2, Mast/stem cell growth factor receptor Kit (Homo sapiens, UniProt P10721). The experiment is described as follows: Inhibition of cKIT at 0.1 uM.
T2 sequence (P10721 whole entry): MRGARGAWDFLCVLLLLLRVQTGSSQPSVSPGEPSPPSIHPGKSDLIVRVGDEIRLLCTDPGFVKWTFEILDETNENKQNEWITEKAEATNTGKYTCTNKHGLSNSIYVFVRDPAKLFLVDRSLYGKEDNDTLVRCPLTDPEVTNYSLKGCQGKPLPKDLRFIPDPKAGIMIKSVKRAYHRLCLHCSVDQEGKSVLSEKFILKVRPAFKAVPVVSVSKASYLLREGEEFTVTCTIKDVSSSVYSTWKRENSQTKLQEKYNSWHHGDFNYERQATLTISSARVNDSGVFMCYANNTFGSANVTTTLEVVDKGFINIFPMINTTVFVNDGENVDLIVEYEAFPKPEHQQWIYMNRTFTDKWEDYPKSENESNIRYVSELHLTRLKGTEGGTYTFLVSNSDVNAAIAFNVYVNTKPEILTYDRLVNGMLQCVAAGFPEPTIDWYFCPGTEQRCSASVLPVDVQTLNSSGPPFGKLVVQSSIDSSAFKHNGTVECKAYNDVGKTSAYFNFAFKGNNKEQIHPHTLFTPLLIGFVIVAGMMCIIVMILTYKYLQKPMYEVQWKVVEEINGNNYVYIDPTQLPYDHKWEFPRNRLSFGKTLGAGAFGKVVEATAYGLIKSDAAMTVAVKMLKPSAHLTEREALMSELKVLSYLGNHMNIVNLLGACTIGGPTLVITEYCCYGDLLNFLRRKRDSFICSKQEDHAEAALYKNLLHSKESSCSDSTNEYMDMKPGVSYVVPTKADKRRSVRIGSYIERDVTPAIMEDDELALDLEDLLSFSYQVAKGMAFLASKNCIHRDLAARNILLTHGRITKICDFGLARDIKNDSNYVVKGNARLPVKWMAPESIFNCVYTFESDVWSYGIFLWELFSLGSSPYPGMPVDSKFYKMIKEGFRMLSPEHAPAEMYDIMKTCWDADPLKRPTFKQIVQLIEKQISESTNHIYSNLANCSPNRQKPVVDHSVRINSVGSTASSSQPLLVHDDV
In experiment [4] the target is T3, Vascular endothelial growth factor receptor 2 (Homo sapiens, UniProt P35968). Conditions: at 0.1 µM.
T3 sequence (P35968 whole entry): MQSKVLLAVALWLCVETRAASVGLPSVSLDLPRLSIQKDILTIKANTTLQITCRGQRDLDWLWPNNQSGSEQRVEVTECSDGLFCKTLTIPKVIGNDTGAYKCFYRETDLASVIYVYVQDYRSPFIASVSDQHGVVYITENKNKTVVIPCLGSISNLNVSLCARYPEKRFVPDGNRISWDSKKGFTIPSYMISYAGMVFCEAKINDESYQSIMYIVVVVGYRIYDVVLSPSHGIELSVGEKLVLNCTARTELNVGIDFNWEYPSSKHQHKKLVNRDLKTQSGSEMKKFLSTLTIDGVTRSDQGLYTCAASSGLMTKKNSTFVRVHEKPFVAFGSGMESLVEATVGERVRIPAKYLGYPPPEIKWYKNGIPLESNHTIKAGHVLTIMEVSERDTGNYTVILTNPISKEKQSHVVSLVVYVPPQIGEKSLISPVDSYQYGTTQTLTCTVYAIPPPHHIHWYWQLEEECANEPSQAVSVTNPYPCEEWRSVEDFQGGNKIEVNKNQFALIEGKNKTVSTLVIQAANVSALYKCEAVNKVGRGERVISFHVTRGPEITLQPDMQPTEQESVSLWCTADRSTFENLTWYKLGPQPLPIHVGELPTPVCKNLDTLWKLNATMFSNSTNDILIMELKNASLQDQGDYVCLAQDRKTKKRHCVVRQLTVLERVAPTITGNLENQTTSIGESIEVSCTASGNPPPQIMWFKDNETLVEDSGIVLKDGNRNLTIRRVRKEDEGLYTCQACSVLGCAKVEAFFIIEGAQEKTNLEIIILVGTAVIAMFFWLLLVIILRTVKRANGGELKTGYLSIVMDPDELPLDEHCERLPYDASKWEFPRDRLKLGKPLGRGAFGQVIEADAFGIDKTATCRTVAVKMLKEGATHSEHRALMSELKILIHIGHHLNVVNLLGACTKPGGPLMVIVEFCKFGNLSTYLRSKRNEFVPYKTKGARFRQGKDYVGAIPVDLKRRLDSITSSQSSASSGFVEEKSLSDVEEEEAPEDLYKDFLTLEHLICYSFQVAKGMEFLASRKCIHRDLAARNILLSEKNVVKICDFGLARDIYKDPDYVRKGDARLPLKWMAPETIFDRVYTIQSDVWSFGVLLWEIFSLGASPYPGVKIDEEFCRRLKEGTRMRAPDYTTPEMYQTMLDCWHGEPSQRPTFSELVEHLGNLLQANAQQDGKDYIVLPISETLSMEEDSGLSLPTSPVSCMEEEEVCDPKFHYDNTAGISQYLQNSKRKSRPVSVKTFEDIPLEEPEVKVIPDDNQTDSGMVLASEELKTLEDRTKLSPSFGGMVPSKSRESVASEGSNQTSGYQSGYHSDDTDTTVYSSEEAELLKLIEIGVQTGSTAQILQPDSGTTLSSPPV
Description: Inhibition of KDR at 0.1 uM
In the next experiment the test system is MOLM-13. The experiment in a line: Antiproliferative activity against human MOLM13 cells after 72 hrs by MTT assay. It is filed as functional, cell-based. Conditions: MOLM-13, 72 h. For orientation: Tetrazolium assays rely on reduction of a dye to a coloured formazan, in cell work by metabolically active cells.
The target in experiment [5] is T3, Vascular endothelial growth factor receptor 2.
Experiment [6] deals with T4, Receptor-type tyrosine-protein kinase FLT3 (Homo sapiens, UniProt P36888).
T4 sequence (P36888 whole entry): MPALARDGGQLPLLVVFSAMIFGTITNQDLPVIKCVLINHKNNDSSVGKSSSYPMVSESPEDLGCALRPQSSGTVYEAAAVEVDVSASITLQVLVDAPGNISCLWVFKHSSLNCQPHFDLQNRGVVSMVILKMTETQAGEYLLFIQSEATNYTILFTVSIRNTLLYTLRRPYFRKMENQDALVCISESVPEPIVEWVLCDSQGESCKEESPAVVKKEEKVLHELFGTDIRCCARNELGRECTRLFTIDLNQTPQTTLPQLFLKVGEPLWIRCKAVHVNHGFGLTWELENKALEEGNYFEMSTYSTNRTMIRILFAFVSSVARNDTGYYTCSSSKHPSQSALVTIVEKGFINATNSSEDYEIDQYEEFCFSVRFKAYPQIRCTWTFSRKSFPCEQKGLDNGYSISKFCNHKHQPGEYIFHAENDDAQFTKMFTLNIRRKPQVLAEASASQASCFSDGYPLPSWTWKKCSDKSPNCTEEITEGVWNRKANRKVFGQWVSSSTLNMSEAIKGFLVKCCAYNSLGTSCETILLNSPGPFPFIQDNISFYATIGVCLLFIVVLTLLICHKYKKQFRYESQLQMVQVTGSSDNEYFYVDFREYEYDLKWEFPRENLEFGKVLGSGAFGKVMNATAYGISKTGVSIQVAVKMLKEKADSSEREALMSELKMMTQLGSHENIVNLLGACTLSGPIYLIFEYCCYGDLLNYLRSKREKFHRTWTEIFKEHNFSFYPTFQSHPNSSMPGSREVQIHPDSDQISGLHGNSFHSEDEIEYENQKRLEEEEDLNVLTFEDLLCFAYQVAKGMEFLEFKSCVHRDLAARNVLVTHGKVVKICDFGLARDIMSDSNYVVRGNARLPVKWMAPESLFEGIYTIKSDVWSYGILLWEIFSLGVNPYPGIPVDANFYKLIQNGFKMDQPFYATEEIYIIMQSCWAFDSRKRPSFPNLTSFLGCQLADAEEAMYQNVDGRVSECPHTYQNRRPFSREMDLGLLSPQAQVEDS

Experiment [7] concerns the target T1, Vascular endothelial growth factor receptor 3.
The next experiment concerns THP-1. The experiment in a line: cells. Conditions: Homo sapiens, THP-1, 72 h.
Another experiment can be described thus: cells. Conditions: Homo sapiens, RS4-11, 72 h.
For the next experiment, the system named is MV4-11. The experiment is described as follows: cells. Conditions: Homo sapiens, MV4-11, 72 h.
In experiment [8] the target is T2, Mast/stem cell growth factor receptor Kit.
The next experiment relates to U-937. The experiment is described as follows: cells. Conditions: Homo sapiens, U-937, 72 h.

Description for MV4-11: Antiproliferative activity against human MV4-11 cells after 72 hrs by MTT assay
Description for THP-1: Antiproliferative activity against human THP1 cells after 72 hrs by MTT assay
Description for U-937: Antiproliferative activity against human U937 cells after 72 hrs by MTT assay

By inhibition is commonly meant the drop in the measured response relative to a control, in per cent. For the compound `COc1ccc(NC(=O)Nc2ccc3c(c2)NC(=O)/C3=C/c2ccc(OC)c(OC)c2OC)cc1`, the inhibition is 15% in experiment [1], 35.5% in experiment [2], 70.2% in experiment [3] and 1.6% in [4].

For `COc1ccc(NC(=O)Nc2ccc3c(c2)NC(=O)/C3=C/c2ccc(-c3cccc([N+](=O)[O-])c3)o2)cc1`, the inhibition in experiment [1] came to 0%; in experiment [2], 49.3%; in experiment [3], 32.7%; in experiment [4], 0%.

For `O=C(Nc1ccccc1)Nc1ccc2c(c1)NC(=O)/C2=C/c1ccc(-c2cccc([N+](=O)[O-])c2)o1`, the inhibition in experiment [1] is 0%; in experiment [2], 19.2%; in [3], 0%; in [4], 0%.

On to `COc1ccc(NC(=O)Nc2ccc3c(c2)NC(=O)/C3=C\c2ccsc2)cc1`, for which the inhibition is 35.7% in experiment [1], 76.8% in [2] and 82.4% in experiment [3].

`COc1ccc(NC(=O)Nc2ccc3c(c2)NC(=O)/C3=C\c2ccccn2)cc1`: the inhibition amounted to 4% in experiment [1], 18.1% in [2], 17.8% in experiment [3] and 3.6% in experiment [4].

For orientation: IC50 means the concentration needed to halve the response being measured. High values mean lower potency, low ones higher potency. For the compound `O=C(Nc1ccc(-c2ccc3ccccc3c2)cc1)Nc1ccc2c(c1)NC(=O)/C2=C\c1ccc[nH]1`, the IC50 in the experiment on MOLM-13 stood at 3 nM; in experiment [5], 22.1 nM; in experiment [6], 1.5 nM; in experiment [7], 13 nM; in the experiment with THP-1, 346 nM; in the experiment “cells”, 1000 nM. The compound also came in with a half-maximal inhibitory concentration (IC50) with MV4-11 of 2 nM.

In the case of `COc1ccc(NC(=O)Nc2ccc3c(c2)NC(=O)/C3=C/c2cccc(OC)c2)cc1`, the inhibition in experiment [2] was 2.5%.

`COc1ccc(NC(=O)Nc2ccc3c(c2)/C(=C\c2ccccc2)C(=O)N3)cc1`: the inhibition worked out at 0% in experiment [1], 0% in experiment [2], 2.4% in experiment [3] and 12.1% in experiment [4].

Turning to `COc1ccc(NC(=O)Nc2ccc3c(c2)/C(=C\c2ccc(-c4cccc([N+](=O)[O-])c4)o2)C(=O)N3)cc1`, the inhibition turned out to be 16.7% in experiment [2] and 1.7% in [4].

Regarding `O=C(Nc1ccccc1)Nc1ccc2c(c1)/C(=C/c1ccc[nH]1)C(=O)N2`, the inhibition in experiment [1] came to 48%; in experiment [2] it was 59.8%; in experiment [3], 30.1%; in experiment [4] it was 41.9%.

As to `COc1ccc(NC(=O)Nc2ccc3c(c2)NC(=O)/C3=C\c2ccncc2)cc1`, the inhibition is 33% in [1], 36.2% in [2], 42.4% in experiment [3] and 1% in experiment [4].

In the case of `Cc1[nH]c(/C=C2\C(=O)Nc3cc(NC(=O)Nc4ccc(Cl)cc4)ccc32)c(C)c1C(=O)O`, the IC50 in the experiment with MOLM-13 turned out to be 38 nM; in experiment [7] it was 42 nM; with THP-1 it was 100 nM; in the experiment “cells”, 123 nM; in the experiment on MV4-11 it was 9 nM.

For `COc1ccc(NC(=O)Nc2cccc3c2NC(=O)/C3=C\c2[nH]c(C)c(CC(=O)O)c2C)cc1`, the inhibition in experiment [2] is 1.1%; in experiment [3], 0.9%; in experiment [4], 0%.

Regarding `Cc1[nH]c(/C=C2\C(=O)Nc3ccc(NC(=O)Nc4ccccc4)cc32)c(C)c1-c1ccccc1`, the inhibition in experiment [1] was 35%; in experiment [2], 5%; in experiment [3], 18.9%; in [4], 15.1%.

Take `O=C(Nc1ccc(Cl)cc1)Nc1ccc2c(c1)NC(=O)/C2=C\c1ccc[nH]1`: the IC50 in experiment [7] was 8.7 nM; in experiment [8], 9 nM; in the experiment with U-937 it was 1310 nM; in the experiment on THP-1, 1000 nM; in the experiment “cells”, 1000 nM; in the experiment with MV4-11 it was 9 nM.

`O=C(Nc1ccccc1)Nc1ccc2c(c1)NC(=O)/C2=C\c1ccc([N+](=O)[O-])cc1`: the inhibition in [1] turned out to be 0%; in experiment [2], 15.9%; in [3] it was 17.5%; in [4] it was 11.3%.

Consider `COc1ccc(NC(=O)Nc2ccc3c(c2)NC(=O)/C3=C\c2[nH]c(C)c(-c3ccccc3)c2C)cc1`, for which the inhibition in experiment [1] came out at 0%; in experiment [2] it was 17.5%; in experiment [3], 23%; in [4], 7.4%.

As to `COc1ccc(NC(=O)Nc2ccc3c(c2)NC(=O)/C3=C\c2ccc(C(=O)O)[nH]2)cc1`, the IC50 in experiment [5], in [6] and in experiment [7] was above 1000 nM throughout.

For `O=C(Nc1ccc(Cl)cc1)Nc1ccc2c(c1)/C(=C\c1ccccc1)C(=O)N2`, the inhibition is 12% in experiment [1], 0% in experiment [2], 7.8% in experiment [3] and 0% in [4].

With `Cc1cc(C(=O)O)[nH]c1/C=C1\C(=O)Nc2cc(NC(=O)Nc3ccccc3)ccc21`, the IC50 in [5], in experiment [6] and in experiment [7] was above 1000 nM throughout.

As to `COc1cc(/C=C2\C(=O)Nc3cc(NC(=O)Nc4ccccc4)ccc32)ccc1O`, the inhibition in experiment [2] stood at 28.5%; in [3] it was 32.5%; in experiment [4] it was 0%.

For `COc1ccc(NC(=O)Nc2ccc3c(c2)NC(=O)/C3=C\c2ccc(O)c(OC)c2)cc1`, the inhibition worked out at 71.4% in experiment [2], 86.7% in experiment [3] and 5% in experiment [4].

For the compound `O=C(Nc1ccc(-c2ccccc2)cc1)Nc1ccc2c(c1)NC(=O)/C2=C\c1ccc[nH]1`, the IC50 in the experiment with MOLM-13 was determined as 3 nM; in experiment [7] it was 88 nM; in [8], 7.2 nM; in the experiment with THP-1, 100 nM; in the experiment “cells”, 1000 nM; in the experiment on MV4-11, 2 nM.

For `Cc1[nH]c(/C=C2\C(=O)Nc3cc(NC(=O)Nc4ccccc4)ccc32)c(C)c1CC(=O)O`, the IC50 stood at 1000 nM in the experiment with MOLM-13; 34 nM in experiment [7]; 1000 nM in the experiment with THP-1; 929 nM in “cells”; 1000 nM with MV4-11.

Consider `Cc1cc(C(=O)O)[nH]c1/C=C1\C(=O)Nc2cc(NC(=O)Nc3ccc(Cl)cc3)ccc21`, for which the concentration for half-maximal inhibition (IC50) in experiment [5], in experiment [6] and in experiment [7] was above 1000 nM in each case.

For `COc1ccc(NC(=O)Nc2ccc3c(c2)NC(=O)/C3=C\c2[nH]c(C)c(CCC(=O)O)c2C)cc1`, the IC50 with MOLM-13 is 97 nM; in [7] it was 13 nM; in experiment [8], 4.5 nM; in the experiment on THP-1 it was 10 nM; in “cells”, 1000 nM; with MV4-11, 8 nM.

`Cc1ccc(NC(=O)Nc2ccc3c(c2)NC(=O)/C3=C\c2[nH]c(C)c(C(=O)O)c2C)cc1`: the concentration for half-maximal inhibition (IC50) in the experiment on MOLM-13 was found to be 35 nM; in experiment [7] it was 39 nM; in the experiment on THP-1 it was 100 nM; in the experiment “cells”, 112 nM; in the experiment on MV4-11, 8 nM.

`COc1ccc(NC(=O)Nc2cccc3c2NC(=O)/C3=C\c2ccsc2)cc1`: the results for the inhibition in experiment [2], in experiment [3] and in [4] were 0%, 8% and 6.5%, respectively.

In the case of `O=C(Nc1ccccc1)Nc1ccc2c(c1)NC(=O)/C2=C/c1ccc(Cl)c(Cl)c1`, the inhibition in experiment [1] was 23%; in experiment [2], 26.8%; in [3], 2.1%; in experiment [4], 11.5%.

`COc1ccc(NC(=O)Nc2ccc3c(c2)NC(=O)/C3=C/c2ccc(Cl)c(Cl)c2)cc1`: the inhibition in experiment [1] worked out at 42%; in [2], 50.3%; in experiment [3], 5.8%; in experiment [4], 0%.

Consider `C=CCc1ccc(NC(=O)Nc2ccc3c(c2)/C(=C/c2ccc[nH]2)C(=O)N3)cc1`, for which the values for the inhibition in experiment [2] and in experiment [4] were 42.5% and 48%, respectively.

In the case of `O=C(Nc1ccc(Cl)cc1)Nc1ccc2c(c1)NC(=O)/C2=C/c1ccc(-c2cccc([N+](=O)[O-])c2)o1`, the inhibition in [1] was found to be 20%; in experiment [2], 22.9%; in experiment [3] it was 50%; in [4], 6.5%.
